Data: patent US20050118287A1, “Use of a vanilloid as an anti-snoring element” (LMD, priority 2002, published 2005)

System: snoring
Experiment: Activity of the shogaol on snoring in a panel of men and women
Assay type: in vivo
Conditions: daily doses corresponding to 20 mg of shogaol
Protocol: Daily doses corresponding to 20 mg of shogaol taken in the form of an extract according to example 1 or 2 or of pure shogaol according to example 3 were administered to a panel of men and women. The effects manifest themselves after 48 hours of treatment and persist for 48 hours after stopping the latter. […] Without being bound by theory, it appears that the effect of this molecule and of other vanilloids should be linked to their involvement in emission by certain nociceptive neurons of a neurotransmitter, substance P.

Which results are given for shogaol?
persistence of the effects after stopping treatment: 48 h; time of treatment after which the effects manifest themselves: 48 h; effect on snoring in the user (taken as extract according to example 1 or 2 or pure shogaol according to example 3): considerably reduces snoring
